# Test results taken from PubChem BioAssay (NCI).
#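 Compound exposure: 48 hours, 5 concentrations, 96-well plates. At the GI50, growth is halved. At the TGI there is no net growth.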
# Assays:
# Assay in all cases: inhibition of tumour cell growth, NCI panel, 48 h
# CAKI-1 renal = test system: CAKI-1 renal
# OVCAR-4 ovarian = test system: OVCAR-4 ovarian
# COLO 205 colon = test system: COLO 205 colon
# DU-145 prostate = test system: DU-145 prostate
# NCI-H226 lung = test system: NCI-H226 lung
# SK-MEL-28 melanoma = test system: SK-MEL-28 melanoma
# T-47D breast = test system: T-47D breast
# OVCAR-8 ovarian = test system: OVCAR-8 ovarian
# SF-268 CNS = test system: SF-268 CNS
# SF-539 CNS = test system: SF-539 CNS
# BT-549 breast = test system: BT-549 breast
# UACC-62 melanoma = test system: UACC-62 melanoma
# CCRF-CEM leukemia = test system: CCRF-CEM leukemia
# KM12 colon = test system: KM12 colon
# EKVX NSCLC = test system: EKVX NSCLC
# SR leukemia = test system: SR leukemia
# TK-10 renal = test system: TK-10 renal
# PC-3 prostate = test system: PC-3 prostate
# HT29 colon = test system: HT29 colon
# RPMI-8226 leukemia = test system: RPMI-8226 leukemia
# HCC-2998 colon = test system: HCC-2998 colon
# SNB-19 CNS = test system: SNB-19 CNS
# HCT-116 colon = test system: HCT-116 colon
# A498 renal = test system: A498 renal
# HS 578T breast = test system: HS 578T breast
# SF-295 CNS = test system: SF-295 CNS
# SK-OV-3 ovarian = test system: SK-OV-3 ovarian
# UO-31 renal = test system: UO-31 renal
# SK-MEL-2 melanoma = test system: SK-MEL-2 melanoma
# SN12C renal = test system: SN12C renal
# NCI/ADR-RES ovarian = test system: NCI/ADR-RES ovarian
# UACC-257 melanoma = test system: UACC-257 melanoma
# U251 CNS = test system: U251 CNS
# MDA-MB-231 breast = test system: MDA-MB-231 breast
# MCF7 breast = test system: MCF7 breast
# 786-0 renal = test system: 786-0 renal
# OVCAR-3 ovarian = test system: OVCAR-3 ovarian
# SW-620 colon = test system: SW-620 colon
# A549 NSCLC = test system: A549 NSCLC
# HL-60(TB) leukemia = test system: HL-60(TB) leukemia
# IGROV1 ovarian = test system: IGROV1 ovarian
# HOP-62 NSCLC = test system: HOP-62 NSCLC
# LOX IMVI melanoma = test system: LOX IMVI melanoma
# OVCAR-5 ovarian = test system: OVCAR-5 ovarian
# NCI-H522 lung = test system: NCI-H522 lung
# NCI-H460 lung = test system: NCI-H460 lung
# SK-MEL-5 melanoma = test system: SK-MEL-5 melanoma
# K-562 leukemia = test system: K-562 leukemia
# SNB-75 CNS = test system: SNB-75 CNS
# RXF 393 renal = test system: RXF 393 renal
# MDA-MB-435 = test system: MDA-MB-435
# MALME-3M melanoma = test system: MALME-3M melanoma
# M14 melanoma = test system: M14 melanoma
# ACHN renal = test system: ACHN renal
# MOLT-4 leukemia = test system: MOLT-4 leukemia
# HCT-15 colon = test system: HCT-15 colon
# HOP-92 NSCLC = test system: HOP-92 NSCLC
structure (smiles),measurement,setting,value
COCCNc1ccc2ncc(C#Cc3cncc(C(=O)Nc4ccc(CN5CCN(C)CC5)c(C(F)(F)F)c4)c3)n2n1,GI50,CAKI-1 renal,0.113 µM
same,TGI,CAKI-1 renal,0.327 µM
same,GI50,OVCAR-4 ovarian,0.352 µM
same,TGI,OVCAR-4 ovarian,2.03 µM
same,GI50,COLO 205 colon,0.12 µM
same,TGI,COLO 205 colon,0.294 µM
same,GI50,DU-145 prostate,0.251 µM
same,TGI,DU-145 prostate,1.54 µM
same,GI50,NCI-H226 lung,0.147 µM
same,TGI,NCI-H226 lung,0.98 µM
same,GI50,SK-MEL-28 melanoma,0.402 µM
same,TGI,SK-MEL-28 melanoma,1.3 µM
same,GI50,T-47D breast,0.325 µM
same,TGI,T-47D breast,1.58 µM
same,GI50,OVCAR-8 ovarian,0.197 µM
same,TGI,OVCAR-8 ovarian,0.83 µM
same,GI50,SF-268 CNS,0.156 µM
same,TGI,SF-268 CNS,0.737 µM
same,GI50,SF-539 CNS,0.0414 µM
same,TGI,SF-539 CNS,0.215 µM
same,GI50,BT-549 breast,0.434 µM
same,TGI,BT-549 breast,1.21 µM
same,GI50,UACC-62 melanoma,0.284 µM
same,TGI,UACC-62 melanoma,0.832 µM
same,GI50,CCRF-CEM leukemia,0.0249 µM
same,TGI,CCRF-CEM leukemia,6.68 µM
same,GI50,KM12 colon,0.005 µM
same,TGI,KM12 colon,1.2 µM
same,GI50,EKVX NSCLC,0.186 µM
same,TGI,EKVX NSCLC,0.807 µM
same,GI50,SR leukemia,0.0783 µM
same,TGI,SR leukemia,0.76 µM
same,GI50,TK-10 renal,0.232 µM
same,TGI,TK-10 renal,0.729 µM
same,GI50,PC-3 prostate,0.254 µM
same,TGI,PC-3 prostate,2.13 µM
same,GI50,HT29 colon,0.198 µM
same,TGI,HT29 colon,0.954 µM
same,GI50,RPMI-8226 leukemia,0.195 µM
same,TGI,RPMI-8226 leukemia,0.719 µM
same,GI50,HCC-2998 colon,0.315 µM
same,TGI,HCC-2998 colon,1.09 µM
same,GI50,SNB-19 CNS,0.289 µM
same,TGI,SNB-19 CNS,1.82 µM
same,GI50,HCT-116 colon,0.0804 µM
same,TGI,HCT-116 colon,0.387 µM
same,GI50,A498 renal,0.221 µM
same,TGI,A498 renal,0.474 µM
same,GI50,HS 578T breast,0.0779 µM
same,TGI,HS 578T breast,0.452 µM
same,GI50,SF-295 CNS,0.708 µM
same,TGI,SF-295 CNS,3.33 µM
same,GI50,SK-OV-3 ovarian,0.426 µM
same,TGI,SK-OV-3 ovarian,1.29 µM
same,GI50,UO-31 renal,0.777 µM
same,TGI,UO-31 renal,1.99 µM
same,GI50,SK-MEL-2 melanoma,0.0978 µM
same,TGI,SK-MEL-2 melanoma,0.273 µM
same,GI50,SN12C renal,0.0888 µM
same,TGI,SN12C renal,0.766 µM
same,GI50,NCI/ADR-RES ovarian,1.89 µM
same,TGI,NCI/ADR-RES ovarian,50 µM
same,GI50,UACC-257 melanoma,0.692 µM
same,TGI,UACC-257 melanoma,2.13 µM
same,GI50,U251 CNS,0.265 µM
same,TGI,U251 CNS,0.984 µM
same,GI50,MDA-MB-231 breast,0.0823 µM
same,TGI,MDA-MB-231 breast,0.333 µM
same,GI50,MCF7 breast,0.139 µM
same,TGI,MCF7 breast,0.933 µM
same,GI50,786-0 renal,0.236 µM
same,TGI,786-0 renal,0.939 µM
same,GI50,OVCAR-3 ovarian,0.232 µM
same,TGI,OVCAR-3 ovarian,1.34 µM
same,GI50,SW-620 colon,0.0831 µM
same,TGI,SW-620 colon,0.257 µM
same,GI50,A549 NSCLC,0.208 µM
same,TGI,A549 NSCLC,1.12 µM
same,GI50,HL-60(TB) leukemia,0.134 µM
same,TGI,HL-60(TB) leukemia,0.566 µM
same,GI50,IGROV1 ovarian,0.123 µM
same,TGI,IGROV1 ovarian,0.639 µM
same,GI50,HOP-62 NSCLC,0.242 µM
same,TGI,HOP-62 NSCLC,1.37 µM
same,GI50,LOX IMVI melanoma,0.0973 µM
same,TGI,LOX IMVI melanoma,0.338 µM
same,GI50,OVCAR-5 ovarian,0.234 µM
same,TGI,OVCAR-5 ovarian,1.4 µM
same,GI50,NCI-H522 lung,0.0998 µM
same,TGI,NCI-H522 lung,0.315 µM
same,GI50,NCI-H460 lung,0.123 µM
same,TGI,NCI-H460 lung,0.621 µM
same,GI50,SK-MEL-5 melanoma,0.575 µM
same,TGI,SK-MEL-5 melanoma,1.24 µM
same,GI50,K-562 leukemia,0.00989 µM
same,TGI,K-562 leukemia,0.54 µM
same,GI50,SNB-75 CNS,0.0257 µM
same,TGI,SNB-75 CNS,0.126 µM
same,GI50,RXF 393 renal,0.145 µM
same,TGI,RXF 393 renal,0.432 µM
same,GI50,MDA-MB-435,0.142 µM
same,TGI,MDA-MB-435,0.843 µM
same,GI50,MALME-3M melanoma,0.181 µM
same,TGI,MALME-3M melanoma,0.711 µM
same,GI50,M14 melanoma,0.125 µM
same,TGI,M14 melanoma,0.408 µM
same,GI50,ACHN renal,0.157 µM
same,TGI,ACHN renal,0.87 µM
same,GI50,MOLT-4 leukemia,0.0514 µM
same,TGI,MOLT-4 leukemia,1.51 µM
same,GI50,HCT-15 colon,0.18 µM
same,TGI,HCT-15 colon,0.715 µM
same,GI50,HOP-92 NSCLC,0.0503 µM
same,TGI,HOP-92 NSCLC,0.229 µM
